# Tested on: yeast cultures
# Experiment: effect of 4-coumaric acid at different concentrations on yeast cultures
# Assay type: cell-based, S. cerevisiae
# Conditions: strains CNFS109 and CNFS110, 48 hours, 30 °C, FIG. 1
# Experimental: The strains of Example 1 were tested in microcultures with 500 mg/L of 4-coumaric acid fed 24 hours post inoculation. CNFS109 and CNFS110 were inoculated into 50 ml of synthetic drop out medium without uracil (Sigma-Aldrich, St. Louis, Missouri) and incubated overnight under shaking conditions. Saturated culture was dispensed into individual wells in 24 well plates that contained 2 ml of synthetic drop out medium without uracil. 4-coumaric acid dissolved in acidified ethanol (20 g/L stock, in ethanol : water : HCl=50:49:1) was added to each well, to form media having 4-coumaric concentrations of 0 mg/L, 100 mg/L, 500 mg/L, 1000 mg/L, and 2000 mg/L, respectively. All experiments were performed in triplicate. The cultures were incubated under shaking for 48 hours (250 rpm, 30 ° C.).
# The bar graph of FIG. 1 illustrates the effect of 4-coumaric acid at different concentrations on yeast cultures. […] Due to the toxicity associated with high concentrations of 4-coumaric acid which inhibited yeast from growing and metabolizing, resveratrol bioconversion was only observed when 4-coumaric was added to the yeast culture at relatively lower concentrations (FIG. 2).
compound,measurement,setting,value
O=C(O)/C=C/c1ccc(O)cc1 [4-coumaric acid],survival rate of yeast culture,1 g/L or 2 g/L added to the culture,declined
same,impact due to 4-coumaric acid toxicity on yeast cultures,concentration of up to 500 mg/L,little or no impact
